Source: ChEMBL document CHEMBL1641504, “Characterization and anions inhibition studies of an α-carbonic anhydrase from the teleost fish Dicentrarchus labrax” (Bioorg Med Chem, 2011)

What was measured:
Carbonic anhydrase 4 = Carbonic anhydrase 4 (Homo sapiens, UniProt P22748)
Description: Inhibition of human carbonic anhydrase 4 by Lineweaver-Burk curves

Carbonic anhydrase 9 = Carbonic anhydrase 9 (Homo sapiens, UniProt Q16790)
Description: Inhibition of human carbonic anhydrase 9 by Lineweaver-Burk curves

[1] = molecular target: Carbonic anhydrase 5A, mitochondrial (Homo sapiens, UniProt P35218)
Description: Inhibition of human carbonic anhydrase 5 by Lineweaver-Burk curves

Carbonic anhydrase 1 = Carbonic anhydrase 1 (Homo sapiens, UniProt P00915)
Description: Inhibition of human carbonic anhydrase 1 by Lineweaver-Burk curves

Carbonic anhydrase 2 = Carbonic anhydrase 2 (Homo sapiens, UniProt P00918)

Carbonic anhydrase 1, sequence (P00915 whole entry): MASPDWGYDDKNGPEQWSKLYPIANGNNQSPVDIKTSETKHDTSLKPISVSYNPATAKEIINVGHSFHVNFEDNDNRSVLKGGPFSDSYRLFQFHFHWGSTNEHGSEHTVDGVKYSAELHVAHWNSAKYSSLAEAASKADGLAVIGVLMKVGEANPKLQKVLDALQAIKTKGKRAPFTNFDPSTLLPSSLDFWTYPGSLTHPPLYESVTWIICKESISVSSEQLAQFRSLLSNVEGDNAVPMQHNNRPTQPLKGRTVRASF
Carbonic anhydrase 5A, mitochondrial, sequence (P35218 whole entry): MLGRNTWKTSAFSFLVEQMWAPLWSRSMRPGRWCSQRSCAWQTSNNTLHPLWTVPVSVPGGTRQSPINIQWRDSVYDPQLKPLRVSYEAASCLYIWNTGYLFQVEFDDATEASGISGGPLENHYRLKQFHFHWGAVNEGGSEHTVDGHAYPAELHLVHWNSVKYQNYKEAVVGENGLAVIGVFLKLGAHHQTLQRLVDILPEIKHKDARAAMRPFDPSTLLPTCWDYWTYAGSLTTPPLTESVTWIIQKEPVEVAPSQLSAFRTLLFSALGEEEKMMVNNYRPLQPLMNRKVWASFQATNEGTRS
Carbonic anhydrase 4, sequence (P22748 whole entry): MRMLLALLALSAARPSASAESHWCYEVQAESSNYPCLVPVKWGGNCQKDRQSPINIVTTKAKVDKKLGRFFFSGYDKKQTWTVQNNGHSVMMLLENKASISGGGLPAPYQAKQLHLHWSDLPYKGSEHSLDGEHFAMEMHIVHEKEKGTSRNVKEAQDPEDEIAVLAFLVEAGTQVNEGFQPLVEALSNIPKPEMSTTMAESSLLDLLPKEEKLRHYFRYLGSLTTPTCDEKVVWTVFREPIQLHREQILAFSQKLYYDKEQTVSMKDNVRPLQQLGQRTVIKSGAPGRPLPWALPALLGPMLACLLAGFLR

Work on `[Br-].[K+]` [POTASSIUM BROMIDE] yielded a Ki (Carbonic anhydrase 4) of 0.09 mM, a Ki (Carbonic anhydrase 9) of 16 mM and a Ki [1] of 50 mM. It also gave a Ki (Carbonic anhydrase 1) of 4 mM.
Compound `O=S(=O)([O-])[O-].[Na+].[Na+]` [SODIUM SULFATE ANHYDROUS] has a Ki (Carbonic anhydrase 4) of 9 mM and a Ki [1] of 680 mM.
`O=[N+]([O-])[O-].[K+]` [POTASSIUM NITRATE] gave a Ki (Carbonic anhydrase 4) of 58.7 mM, a Ki (Carbonic anhydrase 9) of 46 mM and a Ki [1] of 16 mM. The Ki (Carbonic anhydrase 1) was 7 mM.
`O=NO` [SODIUM NITRITE] was tested, and the Ki [1] was 16 mM.
`[Cl-].[K+]` [POTASSIUM CHLORIDE] was tested, and the Ki (Carbonic anhydrase 4) was 0.09 mM, the Ki (Carbonic anhydrase 9) was 33 mM and the Ki [1] was 156 mM. For the same compound, the Ki (Carbonic anhydrase 1) was 6 mM and the Ki (Carbonic anhydrase 2) was greater than 200 mM.
For `[N-]=[N+]=[N-]` [SODIUM AZIDE], the Ki (Carbonic anhydrase 9) was 0.005 mM and the Ki [1] was 0.3 mM.
In the case of `[I-].[K+]` [POTASSIUM IODIDE], the Ki (Carbonic anhydrase 4) is reported as 0.08 mM, the Ki (Carbonic anhydrase 9) is reported as 7 mM and the Ki [1] is reported as 25 mM. It also gave a Ki (Carbonic anhydrase 1) of 0.3 mM.
In the case of `[F-].[K+]` [POTASSIUM FLUORIDE], the Ki (Carbonic anhydrase 4) is reported as 0.07 mM, the Ki (Carbonic anhydrase 9) is reported as 48 mM and the Ki [1] is reported as 241 mM.
`N#C[S-].[Na+]` [THIOCYANATE SODIUM] showed a Ki (Carbonic anhydrase 4) of 39 mM, a Ki (Carbonic anhydrase 9) of 0.13 mM and a Ki [1] of 0.74 mM.
